Data published in patent publication US20080009418A1, “Selective Inhibitors” (Alchemia LTD., priority 2004, published 2008).

Key:
Conditions in all cases: compound at 10 μM
Human δ-opioid (DOP) = biological target: T1, Human δ-opioid (DOP) (Homo sapiens, UniProt P41143); test: Radioligand binding, human δ-opioid (DOP) membranes, FlashPlate, [3H]-Bremazocine
T1 construct: purchased Perkin Elmer Biosignal
Method in brief: (§1)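 Cloned human receptor membranes were coated onto FlashPlate wells and incubated with radioligand and compound (added from a 0.5 mM DMSO daughter plate) for 1 hour at room temperature in the dark. Scintillation counting gave percent inhibition, with DMSO defining total and reference ligand defining non-specific binding.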

Human κ-Opioid (KOP) = biological target: T2, Human κ-Opioid (KOP) (Homo sapiens, UniProt P41145); test: Radioligand binding, human κ-opioid (KOP) membranes, filtration, [3H]-Diprenorphine
T2 construct: purchased Perkin Elmer Biosignal
T2 sequence (P41145 whole entry): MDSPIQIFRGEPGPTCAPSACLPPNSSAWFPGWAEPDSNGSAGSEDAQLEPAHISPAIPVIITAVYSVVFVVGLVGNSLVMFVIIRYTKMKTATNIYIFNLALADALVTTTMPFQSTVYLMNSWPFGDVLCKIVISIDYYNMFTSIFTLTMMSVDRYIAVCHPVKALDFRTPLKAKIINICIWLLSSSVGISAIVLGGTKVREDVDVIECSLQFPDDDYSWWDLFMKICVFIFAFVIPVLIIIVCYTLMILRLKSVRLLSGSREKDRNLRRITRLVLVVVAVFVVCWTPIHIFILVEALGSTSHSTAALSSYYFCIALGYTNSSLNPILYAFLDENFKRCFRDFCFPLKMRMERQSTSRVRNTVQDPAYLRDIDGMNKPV
Method in brief: (§2)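 Percent inhibition of radioligand binding measured on recombinant human membranes: NK1 with [125I]-Substance P, KOP with [3H]-Diprenorphine. Incubation 1 h at room temperature, then harvest onto 0.3% PEI-soaked filters, cold Tris-HCl pH 7.4 washes and scintillation counting; non-specific binding from reference ligand wells.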

Human Melanocortin (MC3) = biological target: T3, Human Melanocortin (MC3) (Homo sapiens, UniProt P41968); test: Radioligand binding, human melanocortin MC3 membranes, FlashPlate, [125I]-NDP-αMSH
T3 construct: purchased Perkin Elmer Biosignal
T3 sequence (P41968 whole entry): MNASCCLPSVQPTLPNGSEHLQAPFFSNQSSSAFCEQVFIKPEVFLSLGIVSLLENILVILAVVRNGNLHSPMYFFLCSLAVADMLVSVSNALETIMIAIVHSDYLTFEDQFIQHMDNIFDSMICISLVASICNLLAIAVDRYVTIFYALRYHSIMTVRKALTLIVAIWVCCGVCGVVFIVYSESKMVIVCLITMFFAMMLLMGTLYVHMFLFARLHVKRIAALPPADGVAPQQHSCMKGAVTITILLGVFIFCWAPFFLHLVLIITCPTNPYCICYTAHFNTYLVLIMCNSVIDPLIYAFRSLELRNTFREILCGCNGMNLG
Method in brief: as §1

Human Melanocortin (MC4) = biological target: T4, Human Melanocortin (MC4) (Homo sapiens, UniProt P32245); test: Radioligand binding, human melanocortin MC4 membranes, FlashPlate, [125I]-NDP-αMSH
T4 construct: purchased Perkin Elmer Biosignal
T4 sequence (P32245 whole entry): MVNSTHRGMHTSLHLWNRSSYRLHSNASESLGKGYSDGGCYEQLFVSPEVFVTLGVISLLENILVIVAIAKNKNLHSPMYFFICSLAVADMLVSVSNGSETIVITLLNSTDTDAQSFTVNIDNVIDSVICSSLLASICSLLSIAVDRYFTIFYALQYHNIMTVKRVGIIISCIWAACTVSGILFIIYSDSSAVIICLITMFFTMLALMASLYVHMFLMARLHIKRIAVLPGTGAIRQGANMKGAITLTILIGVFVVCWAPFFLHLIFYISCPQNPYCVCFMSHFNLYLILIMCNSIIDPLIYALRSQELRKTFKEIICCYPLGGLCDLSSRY
Method in brief: as §1

Human melanocortin (MC5) = biological target: T5, Human melanocortin (MC5) (Homo sapiens, UniProt P33032); test: Radioligand binding, human melanocortin MC5 membranes, FlashPlate, [125I]-NDP-αMSH
T5 construct: purchased Perkin Elmer Biosignal
T5 sequence (P33032 whole entry): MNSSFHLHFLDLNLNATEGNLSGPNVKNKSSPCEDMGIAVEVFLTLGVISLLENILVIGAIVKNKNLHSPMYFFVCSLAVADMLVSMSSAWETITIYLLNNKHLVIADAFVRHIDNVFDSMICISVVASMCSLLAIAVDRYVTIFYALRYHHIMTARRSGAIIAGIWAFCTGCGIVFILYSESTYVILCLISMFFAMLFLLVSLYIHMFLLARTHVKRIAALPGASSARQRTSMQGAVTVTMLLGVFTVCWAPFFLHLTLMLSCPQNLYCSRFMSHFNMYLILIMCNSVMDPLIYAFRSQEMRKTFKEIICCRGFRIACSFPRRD
Method in brief: as §1

[1] = biological target: T6, Human melanin-concentrating hormone (MCH1) (Homo sapiens, UniProt Q99705); test: Radioligand binding, human melanin-concentrating hormone MCH1 membranes, FlashPlate, [125I]-S36057
T6 construct: purchased Perkin Elmer Biosignal
T6 sequence (Q99705 whole entry): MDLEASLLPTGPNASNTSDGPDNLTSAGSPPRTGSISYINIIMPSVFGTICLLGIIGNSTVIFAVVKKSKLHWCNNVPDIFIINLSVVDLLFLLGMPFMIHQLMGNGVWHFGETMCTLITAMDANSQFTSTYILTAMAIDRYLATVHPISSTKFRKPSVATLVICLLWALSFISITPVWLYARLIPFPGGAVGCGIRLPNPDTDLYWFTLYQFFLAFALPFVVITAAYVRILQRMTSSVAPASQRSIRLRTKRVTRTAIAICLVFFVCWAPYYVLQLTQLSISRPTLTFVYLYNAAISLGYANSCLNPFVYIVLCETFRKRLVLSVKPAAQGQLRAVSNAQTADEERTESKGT
Method in brief: as §1

Human μ-opioid (MOP) = biological target: T7, Human μ-opioid (MOP) (Homo sapiens, UniProt P35372); test: Radioligand binding, human μ-opioid (MOP) membranes, FlashPlate, [3H]-Naloxone
T7 construct: purchased Perkin Elmer Biosignal
T7 sequence (P35372 whole entry): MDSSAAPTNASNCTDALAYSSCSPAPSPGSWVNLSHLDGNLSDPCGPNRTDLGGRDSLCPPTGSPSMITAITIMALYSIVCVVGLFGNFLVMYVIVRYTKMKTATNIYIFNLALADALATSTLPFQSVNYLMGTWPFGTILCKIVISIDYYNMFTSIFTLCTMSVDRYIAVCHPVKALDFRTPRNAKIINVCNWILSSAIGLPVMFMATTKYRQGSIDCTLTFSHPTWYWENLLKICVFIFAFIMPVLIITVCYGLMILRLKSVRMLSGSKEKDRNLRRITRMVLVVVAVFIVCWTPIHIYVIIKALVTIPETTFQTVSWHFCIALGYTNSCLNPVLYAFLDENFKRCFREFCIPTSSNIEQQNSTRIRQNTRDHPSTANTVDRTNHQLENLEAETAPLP
Method in brief: as §1

Human neurokinin (NK1) = biological target: T8, Human neurokinin (NK1) (Homo sapiens, UniProt P25103); test: Radioligand binding, human neurokinin NK1 membranes, filtration, [125I]-Substance P
T8 construct: purchased Perkin Elmer Biosignal
T8 sequence (P25103 whole entry): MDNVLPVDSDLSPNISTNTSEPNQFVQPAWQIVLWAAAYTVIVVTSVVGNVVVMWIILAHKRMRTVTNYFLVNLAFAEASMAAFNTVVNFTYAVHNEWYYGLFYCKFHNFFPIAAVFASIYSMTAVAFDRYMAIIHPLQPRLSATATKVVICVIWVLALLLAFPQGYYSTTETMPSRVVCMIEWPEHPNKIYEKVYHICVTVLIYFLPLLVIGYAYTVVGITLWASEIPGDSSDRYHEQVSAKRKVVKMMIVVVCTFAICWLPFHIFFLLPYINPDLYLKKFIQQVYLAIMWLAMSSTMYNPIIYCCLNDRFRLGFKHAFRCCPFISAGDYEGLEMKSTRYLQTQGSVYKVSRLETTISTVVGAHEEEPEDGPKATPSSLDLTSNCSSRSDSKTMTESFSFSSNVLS
Method in brief: as §2

[2] = biological target: T9, Human neuropeptide Y (NPY-Y1) (Homo sapiens, UniProt P25929); test: Radioligand binding, human neuropeptide Y NPY-Y1 membranes, FlashPlate, [125I]-PYY
T9 construct: purchased Perkin Elmer Biosignal
T9 sequence (P25929 1-384): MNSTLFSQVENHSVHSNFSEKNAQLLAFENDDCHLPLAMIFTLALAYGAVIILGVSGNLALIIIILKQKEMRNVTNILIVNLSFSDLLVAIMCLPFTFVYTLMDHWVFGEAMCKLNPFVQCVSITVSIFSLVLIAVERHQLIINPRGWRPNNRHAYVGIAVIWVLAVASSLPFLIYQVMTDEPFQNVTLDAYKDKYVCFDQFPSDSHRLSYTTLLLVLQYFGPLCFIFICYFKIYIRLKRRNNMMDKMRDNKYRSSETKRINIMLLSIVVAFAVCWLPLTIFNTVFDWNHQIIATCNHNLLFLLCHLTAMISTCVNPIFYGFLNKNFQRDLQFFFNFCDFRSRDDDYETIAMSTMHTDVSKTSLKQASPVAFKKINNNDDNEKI
Method in brief: as §1

Human opioid (ORL1) = biological target: T10, Human opioid (ORL1) (Homo sapiens, UniProt P41146); test: Radioligand binding, human opioid ORL1 membranes, FlashPlate, [125I]-Nociceptin
T10 construct: purchased Perkin Elmer Biosignal
T10 sequence (P41146 whole entry): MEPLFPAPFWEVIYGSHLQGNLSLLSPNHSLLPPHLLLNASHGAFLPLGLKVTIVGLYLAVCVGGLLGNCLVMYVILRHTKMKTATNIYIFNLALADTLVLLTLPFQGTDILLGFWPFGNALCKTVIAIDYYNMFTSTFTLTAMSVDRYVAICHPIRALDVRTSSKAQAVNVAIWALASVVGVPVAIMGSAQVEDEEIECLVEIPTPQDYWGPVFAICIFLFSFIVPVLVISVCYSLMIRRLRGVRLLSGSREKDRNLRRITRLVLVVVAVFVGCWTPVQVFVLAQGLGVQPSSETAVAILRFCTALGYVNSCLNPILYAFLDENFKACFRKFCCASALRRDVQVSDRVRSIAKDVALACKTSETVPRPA
Method in brief: as §1

Mouse urotensin (mUR2) = biological target: T11, Mouse urotensin (mUR2) (Mus musculus, UniProt Q8VIH9); test: Radioligand binding, mouse urotensin mUR2 membranes, FlashPlate, [125I]-Urotensin II
T11 construct: purchased Perkin Elmer Biosignal
T11 sequence (Q8VIH9 1-385): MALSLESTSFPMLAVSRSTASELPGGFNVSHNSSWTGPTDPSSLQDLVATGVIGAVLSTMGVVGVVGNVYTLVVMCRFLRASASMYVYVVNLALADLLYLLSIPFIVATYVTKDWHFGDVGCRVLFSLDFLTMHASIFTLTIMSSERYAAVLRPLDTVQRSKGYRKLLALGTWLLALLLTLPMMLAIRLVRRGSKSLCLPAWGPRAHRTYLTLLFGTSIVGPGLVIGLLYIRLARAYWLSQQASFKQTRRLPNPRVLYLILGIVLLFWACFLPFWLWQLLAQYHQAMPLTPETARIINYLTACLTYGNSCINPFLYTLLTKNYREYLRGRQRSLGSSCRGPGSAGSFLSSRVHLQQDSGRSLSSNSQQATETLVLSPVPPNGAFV
Method in brief: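 Cloned mouse urotensin (mUR2) receptor membranes from Perkin Elmer Biosignal were immobilized in FlashPlate microplates using a proprietary coating. Each well got 19.5 μl buffer, then 0.5 μl of DMSO, reference ligand, or compound. Adding 5 μl of [125I]-Urotensin II, diluted to 5× final concentration in binding buffer, started binding. Plates were sealed with TopSeal-A and incubated 1 hour at room temperature in the dark. Wells were counted for 30 seconds each on a TopCount after a 60-second delay, and percentage inhibition was calculated.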

T1 sequence (P41143 whole entry): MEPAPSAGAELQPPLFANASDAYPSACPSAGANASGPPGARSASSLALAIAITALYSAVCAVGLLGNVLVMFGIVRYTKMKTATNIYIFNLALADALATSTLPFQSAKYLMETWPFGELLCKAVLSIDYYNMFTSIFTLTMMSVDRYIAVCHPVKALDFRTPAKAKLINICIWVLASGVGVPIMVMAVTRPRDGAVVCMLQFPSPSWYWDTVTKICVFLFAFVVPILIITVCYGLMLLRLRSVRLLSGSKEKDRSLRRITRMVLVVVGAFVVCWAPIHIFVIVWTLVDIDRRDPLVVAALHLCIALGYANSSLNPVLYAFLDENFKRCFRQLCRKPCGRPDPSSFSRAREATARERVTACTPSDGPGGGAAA

## COCC1OC(OCc2ccc3ccccc3c2)C(NC(=O)CCCNC(=N)N)C(OCc2ccc(Cl)cc2)C1O (stereo not drawn) [compound 240]
Human δ-opioid (DOP); [3H]-Bremazocine, FlashPlate
  A1: inhibition of radioligand binding: − (“−” indicates less than 50% inhibition at 10 μM)
Human κ-Opioid (KOP); [3H]-Diprenorphine, filtration
  A2: inhibition of radioligand binding: + (“+” indicates greater than 50% inhibition at 10 μM)
Human Melanocortin (MC3); [125I]-NDP-αMSH, FlashPlate
  A3: inhibition of radioligand binding: + (“+” indicates greater than 50% inhibition at 10 μM)
Human Melanocortin (MC4); [125I]-NDP-αMSH, FlashPlate
  A4: inhibition of radioligand binding: + (“+” indicates greater than 50% inhibition at 10 μM)
Human melanocortin (MC5); [125I]-NDP-αMSH, FlashPlate
  A5: inhibition of radioligand binding: + (“+” indicates greater than 50% inhibition at 10 μM)
[1]; [125I]-S36057, FlashPlate
  A6: inhibition of radioligand binding: + (“+” indicates greater than 50% inhibition at 10 μM)
Human μ-opioid (MOP); [3H]-Naloxone, FlashPlate
  A7: inhibition of radioligand binding: + (“+” indicates greater than 50% inhibition at 10 μM)
Human neurokinin (NK1); [125I]-Substance P, filtration
  A8: inhibition of radioligand binding: + (“+” indicates greater than 50% inhibition at 10 μM)
[2]; [125I]-PYY, FlashPlate
  A9: inhibition of radioligand binding: − (“−” indicates less than 50% inhibition at 10 μM)
Human opioid (ORL1); [125I]-Nociceptin, FlashPlate
  A10: inhibition of radioligand binding: + (“+” indicates greater than 50% inhibition at 10 μM)
Mouse urotensin (mUR2); [125I]-Urotensin II, FlashPlate
  A11: inhibition of radioligand binding: − (“−” indicates less than 50% inhibition at 10 μM)

## COCC1OC(OCc2ccc3ccccc3c2)C(NC(=O)CCN)C(OCc2ccc3ccccc3c2)C1O (stereo not drawn) [compound 546]
Human δ-opioid (DOP); [3H]-Bremazocine
  A1: inhibition of radioligand binding, human δ-opioid (DOP): − (“−” indicates less than 50% inhibition at 10 μM)
Human κ-Opioid (KOP); [3H]-Diprenorphine
  A2: inhibition of radioligand binding, human κ-opioid (KOP): − (“−” indicates less than 50% inhibition at 10 μM)
Human Melanocortin (MC3); [125I]-NDP-αMSH
  A3: inhibition of radioligand binding, human melanocortin (MC3): − (“−” indicates less than 50% inhibition at 10 μM)
Human Melanocortin (MC4); [125I]-NDP-αMSH
  A4: inhibition of radioligand binding, human melanocortin (MC4): − (“−” indicates less than 50% inhibition at 10 μM)
Human melanocortin (MC5); [125I]-NDP-αMSH, 10 µM
  A5: inhibition of radioligand binding, human melanocortin (MC5): + (“+” indicates greater than 50% inhibition at 10 μM)
[1]; [125I]-S36057
  A6: inhibition of radioligand binding, human melanin-concentrating hormone (MCH1): − (“−” indicates less than 50% inhibition at 10 μM)
Human μ-opioid (MOP); [3H]-Naloxone
  A7: inhibition of radioligand binding, human μ-opioid (MOP): − (“−” indicates less than 50% inhibition at 10 μM)
Human neurokinin (NK1); [125I]-Substance P, 10 µM
  A8: inhibition of radioligand binding, human neurokinin (NK1): − (“−” indicates less than 50% inhibition at 10 μM)
[2]; [125I]-PYY
  A9: inhibition of radioligand binding, human neuropeptide Y (NPY-Y1): − (“−” indicates less than 50% inhibition at 10 μM)
Human opioid (ORL1); [125I]-Nociceptin
  A10: inhibition of radioligand binding, human opioid (ORL1): − (“−” indicates less than 50% inhibition at 10 μM)
Mouse urotensin (mUR2); [125I]-Urotensin II
  A11: inhibition of radioligand binding, mouse urotensin (mUR2): − (“−” indicates less than 50% inhibition at 10 μM)

## COC[C@H]1OC(OCc2ccc(-c3ccccc3)cc2)[C@H](NC(=O)CCCNC(=N)N)[C@@H](OCc2ccccc2)[C@@H]1O (stereo partly drawn) [compound 9]
Human δ-opioid (DOP); human δ-opioid (DOP) membranes
  A1 radioligand binding inhibition: − (“−” indicates less than 50% inhibition at 10 μM)
Human κ-Opioid (KOP); human κ-opioid (KOP) membranes
  A2 radioligand binding inhibition: − (“−” indicates less than 50% inhibition at 10 μM)
Human Melanocortin (MC3); human melanocortin MC3 membranes
  A3 radioligand binding inhibition: − (“−” indicates less than 50% inhibition at 10 μM)
Human Melanocortin (MC4); human melanocortin MC4 membranes
  A4 radioligand binding inhibition: − (“−” indicates less than 50% inhibition at 10 μM)
Human melanocortin (MC5); human melanocortin MC5 membranes
  A5 radioligand binding inhibition: − (“−” indicates less than 50% inhibition at 10 μM)
[1]; human MCH1 membranes, 10 µM
  A6 radioligand binding inhibition: − (“−” indicates less than 50% inhibition at 10 μM)
Human μ-opioid (MOP); human μ-opioid (MOP) membranes
  A7 radioligand binding inhibition: − (“−” indicates less than 50% inhibition at 10 μM)
Human neurokinin (NK1); human neurokinin NK1 membranes
  A8 radioligand binding inhibition: + (“+” indicates greater than 50% inhibition at 10 μM)
[2]; human NPY-Y1 membranes
  A9 radioligand binding inhibition: − (“−” indicates less than 50% inhibition at 10 μM)
Human opioid (ORL1); human ORL1 membranes
  A10 radioligand binding inhibition: − (“−” indicates less than 50% inhibition at 10 μM)
Mouse urotensin (mUR2); mouse urotensin mUR2 membranes
  A11 radioligand binding inhibition: − (“−” indicates less than 50% inhibition at 10 μM)
